This is an account of results in ChEMBL document CHEMBL5113483, “Design and synthesis of NAD(P)H: Quinone oxidoreductase (NQO1)-activated prodrugs of 23-hydroxybetulinic acid with enhanced antitumor properties” (Eur J Med Chem, 2022).

Molecules are shown by their SMILES.

One data set deals with NCI-H596. The data set can be described thus: Antiproliferative activity against NQO1-deficient human NCI-H596 cells assessed as inhibition of cell growth incubated for 72 hrs by MTT assay. The class given is functional, cell-based. Particulars: NCI-H596, 72 h.
A short description of data set [1]: Selectivity index, ratio of IC50 for antiproliferative activity against NQO1-deficient human NCI-H596 cells to IC50 for antiproliferative activity against human HT-29 cells overexpressing NQO1. The class given is functional.
A short description of data set [2]: Cytotoxicity against human HFL1 cells assessed as inhibition of cell growth incubated for 72 hrs by MTT assay. The class given is toxicity, cell-based.
In data set [3] the test system is HT-29. The experiment in a line: Antiproliferative activity against human HT-29 cells overexpressing NQO1 assessed as inhibition of cell growth incubated for 72 hrs by MTT assay. It counts as functional, cell-based. Particulars: HT-29, 72 h.
Data set [4] can be described thus: Selectivity index, ratio of IC50 for cytotoxicity against human HFL1 cells to IC50 for antiproliferative activity against human HT-29 cells overexpressing NQO1. It counts as toxicity, cell-based. Particulars: HFL1 cells versus HT-29 cells overexpressing NQO1, read-out: Ratio IC50.
A further data set concerns A549. The data set can be described thus: Antiproliferative activity against human A549 cells overexpressing NQO1 assessed as inhibition of cell growth incubated for 72 hrs by MTT assay. It counts as functional, cell-based. Particulars: A549, 72 h.
Data set [5] concerns HT-29. The experiment in a line: Antiproliferative activity against human HT-29 cells overexpressing NQO1 assessed as inhibition of cell growth preincubated with NQO1 inhibitor, dicoumarol for 30 mins followed by compound addition and measured after 72 hrs by MTT assay. It counts as functional, cell-based.
A short description of data set [6]: Selectivity index, ratio of IC50 for antiproliferative activity against human HT-29 cells overexpressing NQO1 in presence of dicoumarol to antiproliferative activity against human HT-29 cells overexpressing NQO1. The class given is functional.
Data set [7] has as its system HT-29. The experiment in a line: Antitumor activity against human HT-29 cells overexpressing NQO-1 xenografted in ICR mouse assessed as reduction in tumor weight at 30 mg/kg, ip administered every day for 21 days and measured every 2 days relative to control. The class given is functional. Particulars: time 21 day. Details: scale not given: the % may be the effect or the level left.

In data set [8] the test system is HT-29. The experiment in a line: Antitumor activity against human HT-29 cells overexpressing NQO-1 xenografted in ICR mouse assessed as reduction in tumor weight at 30 mg/kg, ip administered every 2 days for 21 days and measured every 2 days relative to control. Details: scale not given: the % may be the effect or the level left. The class given is functional.
Data set [9] can be described thus: Toxicity in […] xenografted with human HT-29 cells overexpressing NQO-1 assessed as reduction in body weight at 30 mg/kg, ip administered for 21 days and measured every 2 days. The class given is organism-based. Particulars: in vivo, 504 h, time 21 day.

For `C=C(C)[C@@H]1CC[C@]2(C(=O)OCCOC(=O)CCC(=O)OCc3cn(C)c4c3C(=O)C(OC)=CC4=O)CC[C@]3(C)[C@H](CC[C@@H]4[C@@]5(C)CC[C@H](OC(=O)CCC(=O)N6CCNCC6)[C@@](C)(COC(C)=O)[C@@H]5CC[C@]43C)[C@@H]12`, the values for the IC50 with NCI-H596, in the data set with HT-29 [3] and with A549 were 6.39 µM, 3.29 µM and 5.45 µM, respectively. The “Ratio IC50” value in [1] was found to be 2.12. In addition, the IC50 at 72 h in [2] came out at 6.79 µM. Moreover, the selectivity ratio in data set [4] amounted to 1.99.
`C=C(C)[C@@H]1CC[C@]2(C(=O)NCCNC(=O)CCC(=O)OCc3cn(C)c4c3C(=O)C(OC)=CC4=O)CC[C@]3(C)[C@H](CC[C@@H]4[C@@]5(C)CC[C@H](OC(C)=O)[C@@](C)(COC(C)=O)[C@@H]5CC[C@]43C)[C@@H]12`: the IC50 in the data set with NCI-H596 turned out to be 7.89 µM; in the data set with HT-29 [5], 8.02 µM; in the data set with HT-29 [3], 1.92 µM; in the data set on A549 it was 3.1 µM. The “Ratio IC50” value was 3.01 in data set [1] and 4.2 in data set [6]. In addition, in data set [2], the IC50 at 72 h was 5.78 µM. Also, the selectivity ratio in data set [4] stood at 4.1.
As to `C=C(C)[C@@H]1CC[C@]2(C(=O)O)CC[C@]3(C)[C@H](CC[C@@H]4[C@@]5(C)CC[C@H](O)[C@@](C)(COC(=O)CCCC(=O)OCc6cn(C)c7c6C(=O)C(OC)=CC7=O)[C@@H]5CC[C@]43C)[C@@H]12`, the results for the IC50 in the data set on NCI-H596, in the data set on HT-29 [3] and with A549 were 4.71 µM, 1.92 µM and 2.52 µM, respectively. Moreover, the “Ratio IC50” value in data set [1] came to 1.69. For the same compound, the IC50 at 72 h in data set [2] came out at 3.23 µM. Further, in data set [4], the selectivity ratio was determined as 2.46.
In the case of `C=C(C)[C@@H]1CC[C@]2(C(=O)OCCOC(=O)CCC(=O)OCc3cn(C)c4c3C(=O)C(OC)=CC4=O)CC[C@]3(C)[C@H](CC[C@@H]4[C@@]5(C)CC[C@H](NC(=O)CCC(=O)N6CCNCC6)[C@@](C)(COC(C)=O)[C@@H]5CC[C@]43C)[C@@H]12`, the results for the IC50 with NCI-H596, with HT-29 [3] and in the data set with A549 were 6.44 µM, 3.63 µM and 5.17 µM, respectively. Besides, the “Ratio IC50” value in [1] is recorded as 1.96. Further, the IC50 at 72 h in data set [2] is 7.11 µM. The selectivity ratio in [4] amounted to 1.77.
`C=C(C)[C@@H]1CC[C@]2(C(=O)OCCOC(=O)CCC(=O)OCc3cn(C)c4c3C(=O)C(OC)=CC4=O)CC[C@]3(C)[C@H](CC[C@@H]4[C@@]5(C)CCC(=O)[C@@](C)(COC(C)=O)[C@@H]5CC[C@]43C)[C@@H]12`: the IC50 in the data set on NCI-H596 was determined as 5.64 µM; in the data set on HT-29 [3], 3.35 µM; with A549, 3.04 µM. In addition, in data set [1], the “Ratio IC50” value is 1.95. In addition, in data set [2], the IC50 at 72 h came to 6.53 µM. The selectivity ratio in [4] was found to be 1.68.
Turning to `C=C(C)[C@@H]1CC[C@]2(C(=O)O)CC[C@]3(C)[C@H](CC[C@@H]4[C@@]5(C)CC[C@H](OC(=O)CCCC(=O)OCc6cn(C)c7c6C(=O)C(OC)=CC7=O)[C@@](C)(COC(C)=O)[C@@H]5CC[C@]43C)[C@@H]12`, the values for the IC50 with NCI-H596, in the data set with HT-29 [3] and in the data set on A549 were 4.58 µM, 3.58 µM and 4.03 µM, respectively. In data set [1], the “Ratio IC50” value is given as 1.36. The IC50 at 72 h in data set [2] was 4.09 µM. Further, in [4], the selectivity ratio was found to be 1.27.
`C=C(C)[C@@H]1CC[C@]2(C(=O)OCCOC(=O)CCC(=O)OCc3cn(C)c4c3C(=O)C(OC)=CC4=O)CC[C@]3(C)[C@H](CC[C@@H]4[C@@]5(C)CC[C@H](O)[C@@](C)(COC(=O)C6CCNCC6)[C@@H]5CC[C@]43C)[C@@H]12`: the IC50 in the data set with NCI-H596 is 7.34 µM; in the data set on HT-29 [3], 4.3 µM; with A549, 5.41 µM. The “Ratio IC50” value in data set [1] was found to be 1.59. The IC50 at 72 h in [2] worked out at 6.83 µM. Also, in data set [4], the selectivity ratio amounted to 1.7.
For `C=C(C)[C@@H]1CC[C@]2(C(=O)O)CC[C@]3(C)[C@H](CC[C@@H]4[C@@]5(C)CC[C@H](OC(=O)CCC(=O)OCc6cn(C)c7c6C(=O)C(OC)=CC7=O)[C@@](C)(COC(C)=O)[C@@H]5CC[C@]43C)[C@@H]12`, the IC50 came out at 5.74 µM with NCI-H596, 3.69 µM in the data set with HT-29 [3] and 4.52 µM in the data set on A549. In [1], the “Ratio IC50” value amounted to 1.97. Besides, in [2], the IC50 at 72 h was determined as 7.25 µM. In addition, in data set [4], the selectivity ratio stood at 1.56.
Consider `C=C(C)[C@@H]1CC[C@]2(C(=O)O)CC[C@]3(C)[C@H](CC[C@@H]4[C@@]5(C)CC[C@H](O)[C@@](C)(CO)[C@@H]5CC[C@]43C)[C@@H]12`, for which the values for the IC50 with NCI-H596, with HT-29 [3] and in the data set with A549 were 58.1 µM, 54.8 µM and 51.4 µM, respectively. Further, the “Ratio IC50” value in [1] worked out at 1.36. Also, the IC50 at 72 h in [2] was 75 µM. Besides, the Activity in the data set with HT-29 [7] came to 56.81%. Moreover, in data set [4], the selectivity ratio came to 1.06.
Turning to `C=C(C)[C@@H]1CC[C@]2(C(=O)N(CCCN(C)C)C(=O)NCC)CC[C@]3(C)[C@H](CC[C@@H]4[C@@]5(C)CC[C@H](O)[C@@](C)(COC(=O)CCC(=O)OCc6cn(C)c7c6C(=O)C(OC)=CC7=O)[C@@H]5CC[C@]43C)[C@@H]12`, the IC50 amounted to 2.78 µM in the data set on NCI-H596, 2.28 µM in the data set on HT-29 [3] and 2.32 µM in the data set with A549. Besides, the “Ratio IC50” value in [1] is 1.85. For the same compound, the IC50 at 72 h in [2] worked out at 4.22 µM. The selectivity ratio in data set [4] is 1.23.
Take `O=c1[nH]cc(F)c(=O)[nH]1` [FLUOROURACIL]: the Activity in the data set on HT-29 [8] is recorded as 65.07%; in data set [9], “Toxic”.
On to `COc1cccc2c1C(=O)c1c(O)c3c(c(O)c1C2=O)C[C@@](O)(C(=O)CO)C[C@@H]3O[C@H]1C[C@H](N)[C@H](O)[C@H](C)O1` [DOXORUBICIN], for which the IC50 in the data set on NCI-H596 was found to be 1.52 µM; in the data set on HT-29 [3], 1.13 µM; in the data set on A549 it was 1.15 µM.
As to `C=C(C)[C@@H]1CC[C@]2(C(=O)N3CCC(N4CCCCC4)CC3)CC[C@]3(C)[C@H](CC[C@@H]4[C@@]5(C)CC[C@H](O)[C@@](C)(COC(=O)CCC(=O)OCc6cn(C)c7c6C(=O)C(OC)=CC7=O)[C@@H]5CC[C@]43C)[C@@H]12`, the IC50 worked out at 6.41 µM in the data set on NCI-H596, 7.11 µM with HT-29 [5], 1.73 µM in the data set on HT-29 [3] and 2.66 µM with A549. For the same compound, the “Ratio IC50” value in data set [1] is recorded as 3.79; in [6], 4.1. In [2], the IC50 at 72 h was found to be 6.56 µM. In addition, the selectivity ratio in data set [4] is 3.71.
